Assays:
neonatal rat CM [1] = settings: constructs of treated and control cells, no significant differences
Procedure: Contractile properties of CMs were measured by field stimulation in an electrical stimulation chamber consisting of two parallel carbon electrodes spaced 1 cm apart as described in [24]. Stimulation was provided by an external electric stimulator (Grass s88x). Using monophasic pulses of 2 ms duration and frequency of 1 pulse per second, the excitation threshold (minimum voltage at which synchronous contractions of 75% of the tissue in the field of view can be observed) was first determined. Then the maximum capture rate (maximum beating frequency) was determined at 200% of the determined excitation threshold voltage.

neonatal rat CM [2] = settings: horizontal device study
Procedure: Cell viability was determined immediately after treatment. In addition, the cells were cultivated in 3D for 7 days as described below.
Live/dead staining was performed by incubating the cells or constructs in a solution of carboxyfluorescein diacetate-succinimidyl ester (CFDA-SE, 10 μM, from Molecular Probes) and propidium iodide (PI, 2.5 μg/mL, from Molecular Probes) for 30-45 minutes at 37° C., according to the manufacturer's protocol (from Molecular Probes, Burlington, Canada). The cells were imaged using a fluorescent microscope (Leica DMIRE2, from Wetzlar, Germany). […] Following treatment, the cells were washed in HBSS, and incubated for 5 hrs in 37° C./5% CO2 incubator. Non-viable cells with compromised cell membranes could be identified by red fluorescence due to binding of PI to their nuclei, while viable cells converted CFDA-SE to the green fluorescent dye […] by esterase-mediated cleavage.
Live/dead staining was performed by incubating the cells or constructs in a solution of carboxyfluorescein diacetate-succinimidyl ester (CFDA-SE, 10 μM, from Molecular Probes) and propidium iodide (PI, 2.5 μg/mL, from Molecular Probes) for 30-45 minutes at 37° C., according to the manufacturer's protocol (from Molecular Probes, Burlington, Canada). The cells were imaged using a fluorescent microscope (Leica DMIRE2, from Wetzlar, Germany). […]

adult mouse CM = settings: 2.5 mM NaNO2, versus untreated, unseparated control
Procedure: Adult mouse CMs were isolated and suspended in Kraft Bruhe (KB) solution at 4° C. The KB solution consisted of 120 mM K-glutamate, 10 mM KCl, 10 mM KH2PO4, 2 mM MgSO4.7H2O, 10 mM Taurine, 5 mM Creatine, 10 mM HEPES, 10 mM Glucose, 0.5 mM EGTA, 0.10% Bovine Serum Albumin (BSA) and a final pH of 7.3 adjusted with KOH. The adult mouse CMs in KB solution were then split into three groups. Each of these three KB solutions containing adult mouse CMs was then further split into four groups; in total, 12 groups of adult mouse CMs in KB solution were maintained at 4° C. and allowed to settle to the bottom of Eppendorf tubes.
The Eppendorf containing KB Solution and adult mouse CMs was left untouched. The other three Eppendorf tubes had the KB solution removed. […] The four Eppendorf tubes were then returned to 4° C. environment to allow the cells settle.
The other three Eppendorf tubes containing adult mouse CMs in the three other solutions were left at room temperature while the device was running.
At the end of the sorting process, each of the Eppendorf tubes that had been sitting at room temperature were equally split into 24-well plate wells. The sorted run was emptied into one well. An equal volume of trypan blue was added to each well. After a minute, 1 mL of either KB or HBSS and 30% FBS was added to each of the wells depending on the group. […]

myoglobin [3] = biological target: myoglobin (Rattus norvegicus, UniProt Q9QZ76)
Procedure: (§1) UV-vis measurements were made in cells lysed with NP40 Lysis Buffer, for 30 min on ice, with cell debris spun down at 13000 rpm for 10 min at 4° C. […] ND-1000 Nanodrop spectrophotometer (from Nanodrop Technologies, Inc., Wilmington, Del., USA) was used to collect absorption spectra from 200-700 nm.

myoglobin [4] = biological target: myoglobin (Mus musculus, UniProt P04247); settings: 2.5 mM NaNO2, ratio of absorbance 635 nm/525 nm
Procedure: as §1

myoglobin (Rattus norvegicus, UniProt Q9QZ76), sequence (Q9QZ76 whole entry): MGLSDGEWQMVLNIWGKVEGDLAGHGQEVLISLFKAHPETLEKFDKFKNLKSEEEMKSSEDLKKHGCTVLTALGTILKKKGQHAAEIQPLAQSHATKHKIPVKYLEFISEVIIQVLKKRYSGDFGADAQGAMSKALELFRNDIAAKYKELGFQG
myoglobin (Mus musculus, UniProt P04247), sequence (P04247 whole entry): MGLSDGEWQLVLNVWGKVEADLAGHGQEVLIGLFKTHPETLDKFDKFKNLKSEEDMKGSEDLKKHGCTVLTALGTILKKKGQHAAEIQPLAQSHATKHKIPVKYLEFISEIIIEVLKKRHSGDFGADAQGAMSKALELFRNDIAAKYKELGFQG

## O=NO [NaNO2, sodium nitrite]
Neonatal rat CM [1]
  excitation threshold (ET): about 4.5±1.3 V/cm
  maximum capture rate (MCR): about 8.3±1.0 pps
Neonatal rat CM [2]
  viability of CMs after treatment with NaNO2 (FIGS. 23A and 23B): unaffected
Adult mouse CM
  viability of adult mouse CM after separation and subsequent culture for 24 hr: not compromised
Myoglobin [3]; 50 mM NaNO2, 30 min, referencing to the 1 hr time point
  conversion of Mb to metMb: 92±3.5%
Myoglobin [3]; 50 mM NaNO2, transient study
  time at which metMb induction reached the equilibrium value: 30 min
Myoglobin [3]; 50 mM NaNO2, transient study, stabilized value
  semi-quantitative fold conversion to metMb: about 10 times the initial metMb amount
Myoglobin [4]
  time of maximum metmyoglobin induction after nitrite was introduced: about 45 min

Reference: US20130240456A1, “DEVICE AND METHOD FOR LABEL-FREE SEPARATION OF MATERIAL USING MAGNETIC FIELD” (THE GOVERNING COUNCIL OF THE UNIVERSITY OF TORONTO, priority 2012, published 2013)
